In brackets after ≈: the same amount, converted by molar mass.
What was measured:
Trichomonas vaginalis = experiment: Minimum inhibition concentration on Trichomonas vaginalis, in vitro quantitative tube-dilution test; assay type: cell-based; settings: for Relative effectiveness Metronidazol = 1.0: MIC on Trichomonas vaginalis relative to Metronidazol = 1.0; for MIC: Trichomonas vaginalis, in vitro tube-dilution test
Protocol: Minimum inhibition concentrations (MIC) on Trichomonas
^1 The tests were carried out in vitro using the quantitative
tubedilutiom test described by P. Klein, Bakteriologische Geundlagen der
chemotherapeutischen Laboratoriumspraxis, SpringerVerlag
BerlinCoettingen-Heidelberg, 1957.

Trypanosoma brucei = Trypanosoma brucei infection of the mouse; assay type: in vivo, mouse (NMRI strains); settings: for recidivation: 25 days post-observation
Protocol: (§1) The action against infections caused by Trypanosomas and Entamoeba histolytica can be illustrated on the mouse (NMRI strains) using methods described in Handbuch fur experimentelle Pharmakologie, Erganzungswerk 16, Erzeugung von Krankheitszustanden durch das Experiment, Part 9, pages 150 to 292, Springer-Verlag, Berlin-Goettingen-Heidelberg, 1964.
1. Trypanosoma brucei--infections of the mouse
(§2) Various dosages were investigated. The curing of the infection was determined microscopically and in a culture. There was also post-observation for 25 days after treatment was discontinued in order to establish whether there was any recidivation

Trypanosoma gambiense = Trypanosoma gambiense infection of mouse; assay type: in vivo, mouse (NMRI strains)
Protocol: as §1, §2
2. Trypanosoma gambiense--infection of mouse
(§3) Same method as in the case of Trypanosoma brucei

Trypanosoma congolense = Trypanosoma congolense infection of mouse; assay type: in vivo, mouse (NMRI strains)
Protocol: as §1, §2
3. Trypanosoma congolense--infection of mouse
as §3

Entamoeba histolytica = Entamoeba histolytica in vitro tube-dilution test; assay type: cell-based; settings: Entamoeba histolytica PN and Q strains, read-out: minimum inhibition concentration
Protocol: 4. Entamoeba histolytica (tube-dilution test)
The PN and Q strains were tested.
The minimum inhibition concentrations were as follows:
The experiments were carried out in vitro using the quantitative tube-dilution test described by P. Klein, Bakteriologische Grundlagen der chemotherapeutischen Laboratoriumspraxis, Springer-Verlag, Berlin-Goettingen-Heidelberg, 1957.

Trichomonas = Trichomonas vaginal infection of mice; assay type: in vivo; settings: po, read-out: cure; for responders at 25 mg/kg: 5×25 mg/kg perorally; for responders at 50 mg/kg: 5×50 mg/kg perorally
Protocol: 5. Trichomonas vaginal--infection of mice Various dosages were investigated. The curing of the infection was determined microscopically and in a culture.

[1] = LD 50 toxicity on mice, oral; settings: mouse, in vivo, NMRI strain, a week's observation period

Compound | MIC (Trichomonas vaginalis) [mg/L] | MIC (Entamoeba histolytica) [mg/L] | Relative effectiveness Metronidazol = 1.0 (Trichomonas vaginalis) | acute action (Trypanosoma brucei; 11×50 mg/kg perorally) | acute action (Trypanosoma gambiense; 11×50 mg/kg perorally) | acute action (Trypanosoma congolense; 11×50 mg/kg perorally) | responders at 25 mg/kg (Trichomonas) [%] | LD50 at 168 h [1] [mg/kg] | responders at 50 mg/kg (Trichomonas) [%] | further results
Cc1nnc(C=Cc2ncc([N+](=O)[O-])n2C)s1 [Example 1, 2-methyl-5-[2-(1-methyl-5-nitroimidazol-2-yl)-vinyl]-1,3,4-thiadiazole] | 0.02 (≈ 0.0796 µM) | < 0.01 | 5.0 | 100% | 100% | 100% | 100 | > 1500 |  | recidivation (Trypanosoma brucei; 11×50 mg/kg perorally): 70%; recidivation (Trypanosoma gambiense; 11×50 mg/kg perorally): 80%; no recidivation (so in the source) (Trypanosoma congolense; 11×50 mg/kg perorally): 20%
Cc1ccc(C(=O)Nc2ccc(S(=O)(=O)O)c3cc(S(=O)(=O)O)cc(S(=O)(=O)O)c23)cc1NC(=O)c1cccc(NC(=O)Nc2cccc(C(=O)Nc3cc(C(=O)Nc4ccc(S(=O)(=O)O)c5cc(S(=O)(=O)O)cc(S(=O)(=O)O)c45)ccc3C)c2)c1 [Suramin, reference compound] |  |  |  |  |  |  |  |  |  | acute action (Trypanosoma brucei; 7×50 mg/kg intraperitoneally): 80%; recidivation (Trypanosoma brucei; 7×50 mg/kg intraperitoneally): no recidivation; acute action (Trypanosoma gambiense; 7×50 mg/kg intraperitoneally): 50%; recidivation (Trypanosoma gambiense; 7×50 kg/mg intraperitoneally): no recidivation; acute action (Trypanosoma congolense; 7×50 mg/kg intraperitoneally): 70%; recidivation (Trypanosoma congolense; 7×50 mg/kg intraperitoneally): no recidivation
CCc1nnc(C(C)=Cc2ncc([N+](=O)[O-])n2C)s1 [Example 10, 2-ethyl-5-[1-methyl-2-(1-methyl-5-nitroimidazol-2-yl)-vinyl]-1,3,4-thiadiazole] | < 0.01 | < 0.01 | > 10.0 | 100% | 100% | 100% | 100 | > 1500 |  | recidivation (Trypanosoma brucei; 11×50 mg/kg perorally): no recidivation; recidivation (Trypanosoma gambiense; 11×50 mg/kg perorally): 60%; recidivation (Trypanosoma congolense; 11×50 mg/kg perorally): no recidication
CCc1nnc(C=Cc2ncc([N+](=O)[O-])n2C)s1 [Example 7, 2-ethyl-5-[2-(1-methyl-5-nitroimidazol-2-yl)-vinyl]-1,3,4-thiadiazole] | < 0.01 | < 0.01 | > 10.0 |  | no action | no action |  | > 1500 | 100 | acute action (Trypanosoma brucei; 11×50 mg/kg (route not given)): 100%; recidivation (Trypanosoma brucei; 11×50 mg/kg (route not given)): 30%

Further lines, with some results ahead:

MIC (Trichomonas vaginalis) [mg/L] | MIC (Entamoeba histolytica) [mg/L] | Compound | Relative effectiveness Metronidazol = 1.0 (Trichomonas vaginalis) | acute action (Trypanosoma brucei; 11×50 mg/kg perorally) | acute action (Trypanosoma gambiense; 11×50 mg/kg perorally) | acute action (Trypanosoma congolense; 11×50 mg/kg perorally) | responders at 25 mg/kg (Trichomonas) [%] | LD50 at 168 h [1] [mg/kg] | responders at 50 mg/kg (Trichomonas) [%] | further results
0.1 (≈ 0.584 µM) | 0.1 (≈ 0.584 µM) | Cc1ncc([N+](=O)[O-])n1CCO [Metronidazol, reference compound] | 1.0 | no action |  |  | 100 |  |  | 
0.01 (≈ 0.0318 µM) | < 0.01 | Cn1c([N+](=O)[O-])cnc1C=Cc1nnc(-c2ccncc2)s1 [Example 5, 2-(4-pyridyl)-5-[2-(1-methyl-5-nitroimidazol-2-yl)-vinyl]-1,3,4-thiadiazole] | 10.0 | no action | no action | no action | 100 |  |  | 
0.1 (≈ 0.404 µM) |  | CCS(=O)(=O)CCn1c([N+](=O)[O-])cnc1C [Tinidazol, reference compound] | 1.0 |  |  |  | 100 |  |  | action (Trypanosoma brucei; 22×50 mg/kg perorally): no action
0.01 (≈ 0.0319 µM) | 0.1 (≈ 0.319 µM) | Cn1c([N+](=O)[O-])cnc1C=Cc1nnc(-c2ccccc2)s1 [Example 2, 2-phenyl-5-[2-(1-methyl-5-nitroimidazol-2-yl)-vinyl]-1,3,4-thiadiazole] | 10.0 | no action | no action | no action |  |  | 10 | 
< 0.01 | < 0.01 | Cn1c([N+](=O)[O-])cnc1C=Cc1nncs1 [Example 6, 2-[2-(1-methyl-5-nitroimidazol-2-yl)-vinyl]-1,3,4-thiadiazole] | > 10.0 | no action | no action | no action |  |  | 50 | 

— US4218460A, “Nitroimidazoles” (BASF Aktiengesellschaft, priority 1978, dated 1980)
